Laboratory results from patent publication US20030134779A1, “Method and composition for treatment and/or prevention of antibiotic-resistant microorganism infections” (priority 2002, published 2003).
Like-named read-outs stand apart in the source and are kept apart here.

Tests used:
Test in all cases: MIC of penicillin G alone or with bovine LF, macrodilution
Assay type in all cases: cell-based
[1] = tested on: S. aureus PC-1; conditions: Staphylococcus aureus, strain β-lactamase +A constitutive
From the text: (§1) Staphylococcus aureus strains ATCC 25923 and 6538 and Escherichia coli ATCC 25922 were obtained from the American Type Culture Collection. Eight bovine mastitis clinical isolates of S. aureus (SHY97-3906, -3923, -4085 -4242, -4320 and -4343, RFT-1 and RFT-5) and one isolate of E. coli SHY97-3923-2 and one isolate of Kiebsiella pneumoniae SHY99-723-1 were kindly provided by the Laboratoire Provincial de Pathologie Animale of St-Hyacinthe and of Rock-Forest (Quebec, Canada), respectively. Nine β-lactam antibiotics resistant S. aureus strains (PC-1, NCTC 9789, 2076, 22260, ST79/741, 3804, RN9, FAR8, and FAR10) were obtained from Vanderbilt University School of Medicine (Nashville, Tenn., USA). All the culture media were from Difco Laboratories (Detroit, Mich.). Bacteria from frozen stock at −80° C. were streaked onto tryptic soy agar plates suplemented with 5% of defibrinated sheep blood (Quelab, Montreal, QC, Canada) or Brain Heart infusion agar plates. Plates were then incubated for 16 to 24 h at 37° C. For most experiments, the strains were subcultured onto Mueller Hinton agar plates (MHA) or broth (MHB) for an additional 16-20 h. Aqueous solutions of the tested products were added by filtration through a sterile filter assembly (pore size 0.2 μm, Fisher, Ottawa, Ontario).
(§2) The MICs were determined by both macrodilution (1 ml/tube) and microdilution (100 μl/well) in sterile 96 well microtiter plates (International Nunc, Napierville, Ill.) techniques in three separate experiments according to the National Committee for Clinical Laboratory Standards (1992 and 1999) in three separate experiments. Serial 2-fold dilutions in MHB of LF, LFC, antibiotic or combination of LF or LFC with antibiotic were inoculated with an overnight culture at a final inoculum of 10^6 cfu/ml in MHB. Effect of LF combination with antibiotic on MICs were determined by adding 0.5 mg or 1 mg/ml of LF to each antibiotic dilution. The MIC was defined as the lowest concentration of drug (highest dilution) that caused a complete inhibition of bacterial growth after an incubation of 18 h. Effect of LF or LFC combination with antibiotic on MIC was also determined by checkerboard method using 96 well microtiter plates. Each antibiotic dilution (50 μl) was serially added to the wells in vertical rows starting from the top (lower dilution) to the bottom. Lactoferrin or LFC (50 μl) were added to 50 μl of each antibiotic dilution and serially diluted starting at the left (lower dilution) to the right. After inoculation, the final concentration of antibiotic from top to bottom were 32 to 8, 2 to 0.5, 0.5 to 0.125 μg/ml for penicillin, cefazolin and neomycin, respectively. From left to right, the concentration of LF or LFC were 25 to 0.0244 mg/ml or 256 to 0.5 μg/ml respectively in a final volume of 100 μl/well. The microplate's were incubated at 37° C. for 24 h. Bacterial growth was measured optically at 540 nm using Spectra Max 250 Microplate Spectrophotometer System of Molecular Device (Fisher Scientific, Ottawa, Canada). Tubes were incubated at 37° C. for 18 h and bacterial growth was measured by visual examination and optically at 540 nm using a spectrophotometer (Philips PU 8800; Pye Unican Ltd, Cambridge, UK). The fractional inhibitory concentration (FIC) was calculated as described by Eliopoulos and Moellering (1991).

[2] = tested on: S. aureus SHY97-3923; conditions: Staphylococcus aureus, strain β-lactamase type −, read-out: MICs of penicillin G
From the text: as §1, §2

[3] = tested on: S. aureus NCTC; conditions: Staphylococcus aureus, strain β-lactamase +A
From the text: as §1, §2

[4] = tested on: S. aureus ST79/41; conditions: Staphylococcus aureus, strain β-lactamase +B, read-out: MICs of penicillin G
From the text: as §1, §2

[5] = tested on: S. aureus SHY97-4320; conditions: Staphylococcus aureus, strain β-lactamase + uncharacterised, read-out: MICs of penicillin G
From the text: as §1, §2

[6] = tested on: S. aureus FAR 10; conditions: Staphylococcus aureus, strain β-lactamase +D, read-out: MICs of penicillin G
From the text: as §1, §2

[7] = tested on: S. aureus ATCC 25923; conditions: Staphylococcus aureus, strain β-lactamase type −, read-out: MICs of penicillin G
From the text: as §1, §2

[8] = tested on: S. aureus SHY97-3906; conditions: Staphylococcus aureus, strain β-lactamase + uncharacterised, read-out: MICs of penicillin G
From the text: as §1, §2

[9] = tested on: S. aureus FAR 8; conditions: Staphylococcus aureus, strain β-lactamase +D, read-out: MICs of penicillin G
From the text: as §1, §2

SMILES: CC1(C)S[C@@H]2[C@H](NC(=O)Cc3ccccc3)C(=O)N2[C@H]1C(=O)O [penicillin G, Penicillin G]
- MIC ([1]; PC1, read-out: MICs of penicillin G, +0.5 mg/ml LF): 128 µg/mL
- MIC ([1]; PC1, read-out: MICs of penicillin G, +1 mg/ml LF): 128 µg/mL
- MIC ([1]; PC1, read-out: MICs of penicillin G, Alone): > 128 µg/mL
- MIC ([2]; SHY973923, +0.5 mg/ml LF): 0.007 µg/mL
- MIC ([2]; SHY973923, +1 mg/ml LF): 0.007 µg/mL
- MIC ([2]; SHY973923, Alone): 0.015 µg/mL
- MIC ([3]; read-out: MICs of penicillin G, +0.5 mg/ml LF): 128 µg/mL
- MIC ([3]; read-out: MICs of penicillin G, +1 mg/ml LF): 128 µg/mL
- MIC ([3]; read-out: MICs of penicillin G, Alone): > 128 µg/mL
- MIC ([4]; ST79/41, +0.5 mg/ml LF): 16 µg/mL
- MIC ([4]; ST79/41, +1 mg/ml LF): 16 µg/mL
- MIC ([4]; ST79/41, Alone): 32 µg/mL
- MIC ([5]; SHY974320, +0.5 mg/ml LF): 32 µg/mL
- MIC ([5]; SHY974320, +1 mg/ml LF): 32 µg/mL
- MIC ([5]; SHY974320, Alone): 64 µg/mL
- MIC ([6]; FAR10, +0.5 mg/ml LF): 1 µg/mL
- MIC ([6]; FAR10, +1 mg/ml LF): 1 µg/mL
- MIC ([6]; FAR10, Alone): 2 µg/mL
- MIC ([7]; ATCC25923, +0.5 mg/ml LF): 0.031 µg/mL
- MIC ([7]; ATCC25923, +1 mg/ml LF): 0.015 µg/mL
- MIC ([7]; ATCC25923, Alone): 0.031 µg/mL
- MIC ([8]; SHY973906, +0.5 mg/ml LF): 0.5 µg/mL
- MIC ([8]; SHY973906, +1 mg/ml LF): 0.25 µg/mL
- MIC ([8]; SHY973906, Alone): 0.5 µg/mL
- MIC ([9]; FAR8, +0.5 mg/ml LF): 8 µg/mL
- MIC ([9]; FAR8, +1 mg/ml LF): 8 µg/mL
- MIC ([9]; FAR8, Alone): 16 µg/mL
